This is an account of results in patent US12509424B2, “Compound and composition as PDGF receptor kinase inhibitor” (NIPPON SHINYAKU CO., LTD., priority 2019, dated 2025).

Test [1] concerns the target PDGFR-β (Homo sapiens (Human), UniProt P09619). Description: PDGFR-β tyrosine kinase inhibitory action (HTRF KinEASE-TK). Format: biochemical. The note with it: PDGFR-β enzyme 1 ng/μL, 30° C. for 30 minutes; read-out: PDGF-β IC50. Summed up: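 Recombinant PDGFR-β at 1 ng/μL final with TK substrate-3-biotin in a substrate solution containing 0.6 μM ATP; buffer 50 mM HEPES pH 7.0, 5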

Test [2] addresses TEL-PDGFRβ fusion gene transfected cells (Ba/F3) (Homo sapiens, UniProt P09619). The test is described as follows: Suppression of proliferation of TEL-PDGFRβ fusion gene transfected Ba/F3 cells. Format: cell-based. The note with it: TEL-PDGFRβ expressing Ba/F3 cells, 72 hours, final concentration 0.1 to 10,000 nM; read-out: PDGFR β/BaF3 proliferation inhibition (IC50). From the text: 2. Preparation of Test Substance
4. Analysis of Measurement Results

Test [3] has as its system pulmonary arterial smooth muscle cells. The test is described as follows: Suppression of proliferation of pulmonary arterial smooth muscle cells (PDGF-BB stimulation, BrdU). The class given is cell-based. The following applies: PASMC, 24 h; healthy human derived pulmonary arterial smooth muscle cells; human PDGF-BB 10 ng/mL stimulation; BrdU uptake after 1 day; test substance final concentration 3 to 10,000 nM; read-out: Human normal PASMC proliferation suppression (PDGF stimulation_IC50). The essentials: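 Healthy human pulmonary arterial smooth muscle cells, serum-starved a day in 0.1% FBS medium, were treated with compound at final 3 to 10,000 nM plus human PDGF-BB (final 10 ng/mL) and BrdU. After 1 day of culture, BrdU uptake was measured with an anti-BrdU antibody.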

Test [4] deals with TEL-KIT fusion gene transfected cells (Ba/F3) (Homo sapiens, UniProt P10721). The test is described as follows: Suppression of proliferation of TEL-KIT fusion gene transfected Ba/F3 cells.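 Note: viable cells quantified via formazan from tetrazolium reduction, inhibition scaled with 0.1% DMSO control as 0% and medium-only blank as 100%, IC50 from two-parameter logistic fit.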 The following applies: read-out: KIT/BaF3 proliferation inhibition (IC50); TEL-KIT expressing Ba/F3 cells, 72 hours, final concentration 0.1 to 10,000 nM.
TEL-KIT fusion gene transfected cells (Ba/F3), sequence (P10721 26-976 limits assumed, change not shown): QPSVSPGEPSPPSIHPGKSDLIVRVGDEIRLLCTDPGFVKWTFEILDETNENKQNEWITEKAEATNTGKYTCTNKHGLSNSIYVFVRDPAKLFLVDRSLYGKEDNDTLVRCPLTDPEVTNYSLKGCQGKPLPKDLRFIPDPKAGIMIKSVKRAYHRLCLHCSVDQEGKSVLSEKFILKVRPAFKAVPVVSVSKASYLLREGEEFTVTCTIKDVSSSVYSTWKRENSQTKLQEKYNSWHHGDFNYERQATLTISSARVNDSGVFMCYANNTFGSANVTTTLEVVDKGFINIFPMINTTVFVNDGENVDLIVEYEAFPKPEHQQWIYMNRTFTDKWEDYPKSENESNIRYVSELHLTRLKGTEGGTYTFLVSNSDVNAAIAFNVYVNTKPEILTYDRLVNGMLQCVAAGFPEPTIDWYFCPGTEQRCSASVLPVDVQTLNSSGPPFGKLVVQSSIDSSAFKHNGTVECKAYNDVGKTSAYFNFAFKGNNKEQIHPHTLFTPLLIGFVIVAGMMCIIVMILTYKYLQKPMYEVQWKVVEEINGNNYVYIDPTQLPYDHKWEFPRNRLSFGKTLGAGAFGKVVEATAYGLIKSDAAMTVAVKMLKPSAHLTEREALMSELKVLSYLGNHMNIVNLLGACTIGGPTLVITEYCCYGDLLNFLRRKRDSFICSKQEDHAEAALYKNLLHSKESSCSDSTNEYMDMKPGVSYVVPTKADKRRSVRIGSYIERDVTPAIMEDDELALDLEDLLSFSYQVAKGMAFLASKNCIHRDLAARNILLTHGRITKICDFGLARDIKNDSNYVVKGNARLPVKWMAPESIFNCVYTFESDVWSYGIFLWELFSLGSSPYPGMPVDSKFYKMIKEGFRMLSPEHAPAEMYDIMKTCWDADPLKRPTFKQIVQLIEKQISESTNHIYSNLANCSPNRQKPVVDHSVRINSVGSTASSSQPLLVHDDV
Source text: Fabrication of TEL-PDGFRβ and TEL-KIT Fusion Gene Transfected Cells
Subsequently, the vectors for gene transfection were introduced using a transfection reagent (FuGENE6, Promega Corporation) into packaging cells derived from a human fetal kidney cell line, PLAT-E, in the logarithmic growth phase. Since the culture supernatant of PLAT-E after the gene transfection contained virus particles for gene transfection, it was collected and used as a medium for gene transfection. The medium for gene transfection was added to a plate coated with RetroNectin and incubated, and the virus particles were allowed to adhere to the plate. Thereafter, the mouse pro-B cell line Ba/F3 in the logarithmic growth phase was seeded onto the plate and infected with the virus to fabricate cells that proliferate in a PDGFRβ or KIT dependent manner.
The test substance was prepared with dimethyl sulfoxide (DMSO) to 10 mM and diluted with DMSO so as to reach a concentration of 0.0001 to 3 mM. Furthermore, it was diluted by 100 times with distilled water.
Measurement of Suppression Action Against Proliferation of TEL-PDGFRβ or TEL-KIT Expressing Cells
The day after TEL-PDGFRβ and TEL-KIT expressing cells were seeded onto 96 well plates, the prepared test substance solution was added thereto with a final concentration being 0.1 to 10,000 nM. After 72 hours, the viable cell count was measured using the amount of formazan generated from the reduction of a tetrazolium salt compound by the mitochondrial dehydrogenase of viable cells as an indicator.
Based on the amount of formazan in each condition, the suppression rate against cell proliferation was calculated when the amounts of formazan in the negative control (0.1% DMSO solution) and Blank (medium only) were defined as 0% and 100%, respectively. Subsequently, a nonlinear regression analysis with a two parameter logistic model for the log dose and suppression rate against cell proliferation was carried out using the SAS system (SAS Institute Inc.) to estimate the IC50 value.

TEL-PDGFRβ fusion gene transfected cells (Ba/F3), sequence (P09619 33-1106 limits assumed, change not shown): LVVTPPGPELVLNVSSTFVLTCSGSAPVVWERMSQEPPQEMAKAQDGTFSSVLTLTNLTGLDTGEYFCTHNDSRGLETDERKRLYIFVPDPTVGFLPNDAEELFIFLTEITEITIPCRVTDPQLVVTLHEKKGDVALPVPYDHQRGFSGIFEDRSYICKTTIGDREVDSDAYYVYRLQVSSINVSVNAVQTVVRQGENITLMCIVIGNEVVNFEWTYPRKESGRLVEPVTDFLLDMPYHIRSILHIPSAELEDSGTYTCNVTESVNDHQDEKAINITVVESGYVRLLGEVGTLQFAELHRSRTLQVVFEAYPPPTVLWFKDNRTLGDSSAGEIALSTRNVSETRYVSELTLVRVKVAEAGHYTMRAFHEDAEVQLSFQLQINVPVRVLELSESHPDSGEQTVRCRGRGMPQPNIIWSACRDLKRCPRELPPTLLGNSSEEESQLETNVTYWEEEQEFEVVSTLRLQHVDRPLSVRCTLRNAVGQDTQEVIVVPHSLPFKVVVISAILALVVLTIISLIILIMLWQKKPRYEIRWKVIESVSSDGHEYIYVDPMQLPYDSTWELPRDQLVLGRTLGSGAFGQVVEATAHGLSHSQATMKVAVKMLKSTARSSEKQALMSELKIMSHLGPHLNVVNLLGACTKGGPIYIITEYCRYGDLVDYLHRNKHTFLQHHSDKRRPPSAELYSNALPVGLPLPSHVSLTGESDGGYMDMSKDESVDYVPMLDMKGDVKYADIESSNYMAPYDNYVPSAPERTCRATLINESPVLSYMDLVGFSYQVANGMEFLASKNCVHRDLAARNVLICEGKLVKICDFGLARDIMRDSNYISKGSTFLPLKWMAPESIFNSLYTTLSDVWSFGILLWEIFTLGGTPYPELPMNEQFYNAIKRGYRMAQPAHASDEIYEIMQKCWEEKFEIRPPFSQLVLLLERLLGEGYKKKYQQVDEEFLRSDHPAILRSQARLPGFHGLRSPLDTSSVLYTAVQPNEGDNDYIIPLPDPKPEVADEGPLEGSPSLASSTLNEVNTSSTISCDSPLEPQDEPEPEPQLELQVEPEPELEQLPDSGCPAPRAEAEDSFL
PDGFR-β, sequence (P09619 33-1106): as the sequence (P09619 33-1106 limits assumed, change not shown) above

As to `Cc1ccc(C(=O)N[C@H]2CCCC[C@@H]2O)cc1C#Cc1cncc(-c2ccccc2)n1` [Example 75, N-[(1S,2S)-2-hydroxycyclohexyl]-4-methyl-3-[(6-phenylpyrazin-2-yl)ethynyl]benzamide], the IC50 stood at 0.015 µM in test [1], 0.0045 µM in test [2], 0.013 µM in test [3] and 0.3 µM in test [4].
